Results from BindingDB's records for doi:10.1021/jm0101803 (University of Illinois At Chicago, 2001).
pKi: −log10 of the molar value.

Biological target: Beta-secretase 1 (Homo sapiens, UniProt P56817)
Experiment: Enzyme Inhibition Measurements
Conditions: pH 4.5; 37 °C
Method: Enzyme activities were assayed by monitoring the hydrolysis of substrate in the presence or absence of inhibitor compounds. The hydrolysis was recorded as the increase in fluorescence intensity over a 10 min time period. […] The Ki was calculated by using Ki = IC50/ (1 + [S]/Km), and a Km value determined according to Michaelis-Menten.

Beta-secretase 1, sequence (P56817 whole entry): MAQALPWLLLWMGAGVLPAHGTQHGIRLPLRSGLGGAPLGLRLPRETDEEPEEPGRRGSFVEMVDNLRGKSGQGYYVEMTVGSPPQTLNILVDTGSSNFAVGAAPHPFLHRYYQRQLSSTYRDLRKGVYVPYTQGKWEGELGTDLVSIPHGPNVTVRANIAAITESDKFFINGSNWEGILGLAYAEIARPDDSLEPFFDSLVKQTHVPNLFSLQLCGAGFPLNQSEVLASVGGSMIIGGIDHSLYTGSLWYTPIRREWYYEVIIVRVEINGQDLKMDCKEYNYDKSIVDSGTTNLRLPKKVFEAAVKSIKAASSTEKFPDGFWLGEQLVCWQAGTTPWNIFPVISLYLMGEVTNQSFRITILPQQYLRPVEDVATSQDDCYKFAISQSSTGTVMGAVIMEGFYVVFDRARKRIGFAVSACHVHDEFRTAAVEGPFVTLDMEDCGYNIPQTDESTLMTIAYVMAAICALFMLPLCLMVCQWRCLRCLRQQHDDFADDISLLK

- pKi: 7.44
SMILES: CC(C)C[C@H](NC(=O)[C@H](CC(N)=O)NC(=O)[C@@H](N)C(C)C)[C@@H](O)C[C@@H](C)C(=O)N[C@@H](C)C(=O)N[C@@H](CCC(=O)O)C(=O)N[C@@H](Cc1ccccc1)C(=O)O [Val-Asn-LeuAla-Ala-Glu-Phe]
